“Also recorded” adds a separate entry of the source.
How the values were obtained:
3R Shaker K channel = 3R Shaker K channel (Drosophila melanogaster, UniProt P08510, A359R/M356R); experiment: physchem; assay type: cell-based; settings: for G(V) shift: Table 1; for Effects on K channel Mean ± SEM: Table 2, K channel expressed in Xenopus oocytes
How it was run: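 Two-electrode voltage clamp at 20-23° C. in oocytes (also CHO-K1 stable line, manual patch clamp) expressing Shaker H4 lacking N-type inactivation; 1K extracellular solution, pH 7.4, holding −80 mV, 100-ms 5-mV steps up to +70 mV. Compound-induced G(V) shift taken at 10% of control Gmax (oocytes) or as V1/2 difference (CHO-K1).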

[1] = test system: dorsal root ganglion (DRG) neurons; experiment: Resting membrane potential of DRG neurons, whole-cell current clamp; assay type: cell-based, mice; settings: 10 μM, pH 7.4, 120 s application
Protocol: All animal experiments were approved by the local Animal Care and Use Committee and followed international guidelines. Five female 7-12 week-old C57BL/6 mice (Scanbur) were used for this study. The mice were anaesthetized with isoflurane and decapitated. Dorsal root ganglia (DRG) were dissected from all spinal levels and enzymatically digested with collagenase (250 CDU/ml) for 15 min, and then trypsin (1 mg/ml) was added for another 30 min. The ganglia were centrifuged and resuspended in Leibovitz L-15 media with glutamine, supplemented with 10% fetal calf serum, 38 mM glucose, 24 mM NaHCO3 and penicillin/streptomycin. The ganglia were triturated and the DRG neurons plated on poly-D-lysine coated plastic coverslips. The neurons were cultured at 37° C. with 5% CO2 for 2-3 days before the electrophysiological recordings.
All manual electrophysiological recordings were performed at room temperature (20-23° C.), using a GeneClamp 500B amplifier (for oocytes) or a Axopatch 200B amplifier (for manual patch clamp of CHO—K1 cells and DRG neurons) and a Digidata 1440A digitizer and pClamp 10 software (all from Molecular Devices, Inc., Sunnyvale, Calif., USA). Compounds were dissolved to 100 mM in 99.5% EtOH and stored at −20° C. Compounds were diluted in extracellular solution to the desired test concentration.
CHO—K1 Cells were plated on coverslips 2 h before the manual electrophysiological recordings. Coverslips with CHO—K1 cells or DRG neurons were placed in a recording chamber and perfused with extracellular solution by a gravity-fed perfusion system. Substances were applied by a pressurized, automated OctaFlow perfusion system (ALA Scientific Instruments). The signals were sampled at 5-20 kHz after low-pass filtering at 2-5 kHz. For CHO—K1 cells the intracellular solution contained (in mM): 120 K-gluconate, 10 KCl, 5 EGTA, 10 HEPES, 4 Mg-ATP, 0.3 Na-GTP, pH 7.3; the extracellular solution contained (in mM): 135 NaCl, 4 KCl, 10 HEPES, 1 MgCl2, 1.8 CaCl2, 10 glucose, pH 7.4. Currents were evoked in CHO—K1 cells in whole-cell voltage-clamp mode from a holding potential of −80 mV by 100-ms long, 10-mV steps ranging from −80 to +80 mV.
For DRG neurons the intracellular solution contained (in mM): 120 K-gluconate, 10 KCl, 1 EGTA, 10 HEPES, 4 Mg-ATP, 0.3 Na-GTP, pH 7.3; the extracellular solution contained (in mM): 144 NaCl, 2.5 KCl, 10 HEPES, 0.5 MgCl2, 2 CaCl2, 10 glucose, pH 7.4. A liquid-junction potential of approximately −14 mV was corrected for. […] Small and medium sized DRG neurons were selected for whole-cell current-clamp recording. 10 μM of the compounds were applied for 120 s to study the effect on the resting membrane potential, and for 45-120 s to study the effects on evoked action potentials. To evoke action potentials 800-ms depolarizing pulses
The compound effect on the resting membrane potential Vm was determined by subtracting the control pre-compound Vm from the Vm at the end of the 120 s application of test compound.

HL-1 cells = experiment: Membrane potential and firing of spontaneously beating HL-1 cells, whole-cell current clamp; assay type: cell-based; settings: 10 uM
Protocol: All conventional chemicals were purchased from Sigma-Aldrich (Stockholm, Sweden). The DHAA derivatives were diluted in ethanol in a 100 mM stock solution. The stock solutions were stored at −20 t for further use.
The cell culture was done according to a previous study (Claycomb et al., Proceedings of the National Academy of Sciences of the United States of America 1998; 95:2979-2984). In brief, cells were grown on gelating fibronectin coated T75 flasks. They were maintained in Claycomb Medium which was supplemented with 10% fetal bovine serum, 2 mM L-glutamine, 0.1 mM noradrenaline, and 100 U/ml, 100 μg/ml penicillin-streptomycin. Enzymatic dissociation with 0.05% trypsin-EDTA was done after full confluence. Isolated cells were plated on fibronectin-gelatin coated plastic coverslips and used for recording.
Whole-cell current-clamp recordings were done on confluent cells at 35±1° C., using an Axopatch 200B amplifier (Molecular Devices, Sunnyvale, Calif.). Patch pipettes were fabricated from borosilicate capillary glass on a vertical pipette puller and had resistances of 3-5 MO. Data were stored on a computer through Digidata 1440A interface (Molecular Devices), and was analyzed with pCLAMP software (version 10.1, Molecular Devices). The bath solution contained the following (in mM): 140 NaCl, 5.4 KCl, 1 MgCl2, 1.8 CaCl2, 10 HEPES, and 10 glucose (pH adjusted to 7.4 with NaOH). The micropipettes were filled with a solution containing (in mM): 130 K-gluconate, 9 KCl, 8 NaCl, 1 MgCl2, 10 EGTA, 10 HEPES, and 3 Na2ATP (pH adjusted to 7.3 with KOH).

[2] = 100 μM, pH 7.4, Xenopus oocytes

Sequence of 3R Shaker K channel (P08510 whole entry M356R/A359R): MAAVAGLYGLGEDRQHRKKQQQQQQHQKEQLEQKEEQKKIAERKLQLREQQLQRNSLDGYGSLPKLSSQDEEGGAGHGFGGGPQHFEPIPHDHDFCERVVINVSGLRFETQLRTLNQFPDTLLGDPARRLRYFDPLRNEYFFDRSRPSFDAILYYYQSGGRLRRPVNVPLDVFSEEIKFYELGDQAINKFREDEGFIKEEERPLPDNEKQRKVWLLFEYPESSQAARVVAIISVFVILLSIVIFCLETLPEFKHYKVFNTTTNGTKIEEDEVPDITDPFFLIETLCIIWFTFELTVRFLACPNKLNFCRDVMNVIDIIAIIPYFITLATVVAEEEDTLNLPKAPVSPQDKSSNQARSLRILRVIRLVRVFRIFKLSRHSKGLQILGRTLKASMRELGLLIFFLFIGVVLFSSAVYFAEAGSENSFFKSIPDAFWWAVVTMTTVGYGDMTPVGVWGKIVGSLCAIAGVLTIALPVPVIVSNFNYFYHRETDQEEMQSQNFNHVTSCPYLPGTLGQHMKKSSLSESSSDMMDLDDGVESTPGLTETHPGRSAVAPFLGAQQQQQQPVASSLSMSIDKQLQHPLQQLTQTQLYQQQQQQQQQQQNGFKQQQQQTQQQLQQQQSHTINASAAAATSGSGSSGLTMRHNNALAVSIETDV

CC(C)c1cc2c(cc1Cl)[C@@]1(C)CCC[C@@](C)(C(=O)O)C1CC2 (stereo partly drawn) [Wu13, (1R,4aS)-6-chloro-7-isopropyl-1,4a-dimethyl-1,2,3,4,4a,9,10,10a-octahydrophenanthrene-1-carboxylic acid]
G(V) shift (3R Shaker K channel; [2]): −15.8 mV
shift of the resting membrane potential (ΔVm) [1]: most potent compounds on the DRG neurons

C=CCO/N=C1\CC2[C@](C)(C(=O)O)CCC[C@]2(C)c2cc(Cl)c(C(C)C)cc21 (stereo partly drawn) [Wu23, (1R,4aS,E)-9-((allyloxy)imino)-6-chloro-7-isopropyl-1,4a-dimethyl-1,2,3,4,4a,9,10,10a-octahydrophenanthrene-1-carboxylic acid]
G(V) shift (3R Shaker K channel; [2]): −26.7 mV
shift of the resting membrane potential (ΔVm) [1]: intermediately potent hyperpolarizers

CC(C)c1ccc2c(c1Br)CCC1[C@](C)(C(=O)O)CCC[C@]21C (stereo partly drawn) [Wu26, (1R,4aS)-8-bromo-7-isopropyl-1,4a-dimethyl-1,2,3,4,4a,9,10,10a-octahydrophenanthrene-1-carboxylic acid]
G(V) shift (3R Shaker K channel; [2]): −21.8 mV
Effects on K channel Mean ± SEM (3R Shaker K channel): −21.8 ± 0.8 mV
Effects on HL-1 cells Mean (membrane potential) (HL-1 cells): −4.7 mV

CO/N=C1\CC2[C@](C)(C(=O)O)CCC[C@]2(C)c2cc(Cl)c(C(C)C)cc21 (stereo partly drawn) [Wu69, (1R,4aS,E)-6-chloro-7-isopropyl-9-methoxyimino-1,4a-dimethyl-1,2,3,4,4a,9,10,10a-octahydrophenanthrene-1-carboxylic acid]
compound-induced G(V) shift (mean±SEM) (3R Shaker K channel; [2]): one of the most potent substances on the Shaker K 3R channel
G(V) shift (3R Shaker K channel; [2]): −28.1 mV
Effects on K channel Mean ± SEM (3R Shaker K channel): −28.1 ± 1.7 mV
Effects on HL-1 cells Mean (membrane potential) (HL-1 cells): −9.3 mV
effect on firing frequency of HL-1 cells (HL-1 cells): reduced the frequency; also recorded: frequency is reduced
effect on membrane potential of HL-1 cells (HL-1 cells): hyperpolarized the membrane potential; also recorded: interspike membrane potential is made more negative; also recorded: most potent substance on the HL-1 cells

CO/N=C1\CC2[C@](C)(C(=O)O)CCC[C@]2(C)c2ccc(C(C)C)c(Br)c21 (stereo partly drawn) [Wu74, (1R,4aS,E)-8-bromo-7-isopropyl-9-(methoxyimino)-1,4a-dimethyl-1,2,3,4,4a,9,10,10a-octahydrophenanthrene-1-carboxylic acid]
G(V) shift (3R Shaker K channel; [2]): −14.7 mV
shift of the resting membrane potential (ΔVm) [1]: intermediately potent hyperpolarizers

Reference: US20180193294A1, “Dehydroabietic acid (DHAA) derivatives for use as ion channel openers” (priority 2015, published 2018)
